Measured values from ChEMBL document CHEMBL1909046, “DrugMatrix in vitro pharmacology data”.

How the values were obtained:
[1] = DRUGMATRIX: Serotonin (5-Hydroxytryptamine) 5-HT3 radioligand binding (ligand: [3H] GR-65630); type: cell membranes, Membrane; conditions: hek293; Not Active = under 50% inhibition at 10 µM
[2] = DRUGMATRIX: Calcium Channel Type L, Phenylalkylamine radioligand binding (ligand: [3H] (-)-Desmethoxyverapamil (D-888)); type: cell membranes, Rattus norvegicus, Wistar, Brain, Membrane; conditions: Not Active = under 50% inhibition at 10 µM
[3] = biological target: T1, C-C chemokine receptor type 4 (Homo sapiens, UniProt P51679); type: cell membranes, Membrane; conditions: chem-1; note: in other assays of this panel Not Active means under 50% inhibition at 10 µM
T1 sequence (P51679 whole entry): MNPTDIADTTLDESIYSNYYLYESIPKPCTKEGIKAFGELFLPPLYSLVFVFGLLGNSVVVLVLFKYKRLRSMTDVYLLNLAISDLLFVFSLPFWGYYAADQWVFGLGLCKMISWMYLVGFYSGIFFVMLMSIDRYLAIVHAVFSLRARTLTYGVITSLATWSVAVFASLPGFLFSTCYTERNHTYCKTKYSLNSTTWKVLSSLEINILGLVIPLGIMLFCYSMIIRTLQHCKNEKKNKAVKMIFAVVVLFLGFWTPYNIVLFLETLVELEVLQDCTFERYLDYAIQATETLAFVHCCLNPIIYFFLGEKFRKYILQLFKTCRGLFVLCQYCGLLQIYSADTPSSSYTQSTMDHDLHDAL

[4] = DRUGMATRIX: Leukotriene, BLT (LTB4) radioligand binding (ligand: [3H]LTB4); type: cell membranes, Membrane; conditions: u-937; Not Active = under 50% inhibition at 10 µM
[5] = biological target: T2, Polyunsaturated fatty acid lipoxygenase ALOX15 (Oryctolagus cuniculus, UniProt P12530); test: biochemical; type: tissue-based, Reticulocytes;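 note: inhibition of 15-lipoxygenase enzyme activity measured with linoleic acid as the substrate; in other assays of this panel Not Active means under 50% inhibition at 10 µM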
T2 sequence (P12530 whole entry): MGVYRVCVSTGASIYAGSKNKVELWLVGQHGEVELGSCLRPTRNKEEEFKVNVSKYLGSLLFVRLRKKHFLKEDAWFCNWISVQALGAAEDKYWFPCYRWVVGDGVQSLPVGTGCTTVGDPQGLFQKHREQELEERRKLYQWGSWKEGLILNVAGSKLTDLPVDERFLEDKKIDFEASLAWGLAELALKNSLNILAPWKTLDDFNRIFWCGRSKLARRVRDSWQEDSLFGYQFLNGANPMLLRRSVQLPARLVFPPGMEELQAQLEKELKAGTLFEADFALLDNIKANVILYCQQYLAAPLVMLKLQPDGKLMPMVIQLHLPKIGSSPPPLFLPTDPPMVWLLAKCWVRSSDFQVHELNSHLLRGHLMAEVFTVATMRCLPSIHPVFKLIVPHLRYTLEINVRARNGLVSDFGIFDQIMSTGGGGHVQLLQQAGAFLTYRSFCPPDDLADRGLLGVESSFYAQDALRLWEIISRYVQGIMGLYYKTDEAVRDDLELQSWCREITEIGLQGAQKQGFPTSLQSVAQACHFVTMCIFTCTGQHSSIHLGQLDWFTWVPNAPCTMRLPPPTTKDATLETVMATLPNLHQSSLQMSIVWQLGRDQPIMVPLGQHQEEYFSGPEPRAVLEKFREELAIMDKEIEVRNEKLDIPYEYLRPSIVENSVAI

[6] = biological target: Voltage-gated inwardly rectifying potassium channel KCNH2 (Homo sapiens, UniProt Q12809); conditions: hek293; note: in other assays of this panel Not Active means under 50% inhibition at 10 µM
Cytochrome P450 1A2 = biological target: T3, Cytochrome P450 1A2 (Homo sapiens, UniProt P05177); conditions: bti-tn-5b1-4; note: in other assays of this panel Not Active means under 50% inhibition at 10 µM
T3 sequence (P05177 whole entry): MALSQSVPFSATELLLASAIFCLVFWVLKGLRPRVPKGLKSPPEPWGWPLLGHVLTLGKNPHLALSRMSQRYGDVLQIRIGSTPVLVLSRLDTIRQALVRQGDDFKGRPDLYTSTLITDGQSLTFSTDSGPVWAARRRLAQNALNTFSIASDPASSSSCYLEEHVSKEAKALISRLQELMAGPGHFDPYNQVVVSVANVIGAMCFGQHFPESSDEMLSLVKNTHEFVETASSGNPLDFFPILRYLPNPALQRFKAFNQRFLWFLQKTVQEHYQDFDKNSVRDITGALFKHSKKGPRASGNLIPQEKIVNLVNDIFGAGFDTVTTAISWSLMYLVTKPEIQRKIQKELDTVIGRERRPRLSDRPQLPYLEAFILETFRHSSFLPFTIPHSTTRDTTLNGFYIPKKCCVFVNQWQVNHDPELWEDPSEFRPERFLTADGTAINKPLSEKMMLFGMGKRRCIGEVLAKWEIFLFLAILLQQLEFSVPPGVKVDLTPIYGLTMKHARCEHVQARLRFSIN

Chain of Voltage-gated inwardly rectifying potassium channel KCNH2 (Q12809 whole entry): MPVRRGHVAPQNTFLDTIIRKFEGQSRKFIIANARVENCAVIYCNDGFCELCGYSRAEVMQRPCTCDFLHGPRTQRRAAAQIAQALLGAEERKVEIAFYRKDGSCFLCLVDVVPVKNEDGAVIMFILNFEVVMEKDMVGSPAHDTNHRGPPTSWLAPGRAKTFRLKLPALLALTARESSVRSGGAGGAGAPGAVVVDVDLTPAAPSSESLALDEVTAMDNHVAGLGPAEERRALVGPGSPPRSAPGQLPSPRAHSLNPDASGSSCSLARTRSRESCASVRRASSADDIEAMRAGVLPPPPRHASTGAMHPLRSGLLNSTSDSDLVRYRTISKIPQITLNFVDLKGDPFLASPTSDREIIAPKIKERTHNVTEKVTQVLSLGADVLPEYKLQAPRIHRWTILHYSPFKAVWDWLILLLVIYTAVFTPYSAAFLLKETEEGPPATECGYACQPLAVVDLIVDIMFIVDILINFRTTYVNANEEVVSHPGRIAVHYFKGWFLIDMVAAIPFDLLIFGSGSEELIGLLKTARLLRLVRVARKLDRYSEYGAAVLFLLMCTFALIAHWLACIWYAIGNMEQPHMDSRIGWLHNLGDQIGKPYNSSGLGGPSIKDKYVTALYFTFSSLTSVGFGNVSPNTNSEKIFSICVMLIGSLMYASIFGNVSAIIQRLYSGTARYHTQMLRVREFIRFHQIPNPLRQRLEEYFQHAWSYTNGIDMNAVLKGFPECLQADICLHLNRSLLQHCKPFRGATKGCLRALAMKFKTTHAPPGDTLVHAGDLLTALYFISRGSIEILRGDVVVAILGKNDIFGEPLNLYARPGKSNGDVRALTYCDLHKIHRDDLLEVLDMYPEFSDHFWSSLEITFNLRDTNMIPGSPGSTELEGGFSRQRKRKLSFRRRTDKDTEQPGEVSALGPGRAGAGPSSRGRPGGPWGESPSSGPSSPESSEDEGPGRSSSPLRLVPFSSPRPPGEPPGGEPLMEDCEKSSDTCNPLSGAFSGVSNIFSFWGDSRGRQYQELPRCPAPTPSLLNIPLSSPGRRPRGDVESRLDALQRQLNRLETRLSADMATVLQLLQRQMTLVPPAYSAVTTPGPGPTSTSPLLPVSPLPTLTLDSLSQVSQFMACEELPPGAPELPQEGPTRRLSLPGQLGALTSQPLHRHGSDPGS

| Compound | IC50 [1] | Ki [1] | IC50 [2] | Ki [2] | IC50 [3] | IC50 [4] | Ki [4] | IC50 ([5]; read-out: IC50) [nM] | IC50 [6] | Ki [6] | IC50 ([2]; read-out: IC50) [nM] | Ki ([2]; read-out: Ki) [nM] | IC50 ([5]; reticulocytes) | IC50 (Cytochrome P450 1A2) | Ki (Cytochrome P450 1A2) |
| --- | --- | --- | --- | --- | --- | --- | --- | --- | --- | --- | --- | --- | --- | --- | --- |
| Cc1c(C)c2c(c(C)c1O)CCC(C)(CN1CCN(c3cc(N4CCCC4)nc(N4CCCC4)n3)CC1)O2 (stereo not drawn) | Not Active | Not Active | Not Active | Not Active | Not Active | Not Active | Not Active | 5670 | Not Active | Not Active | – | – | – | – | – |
| COc1ccc(CCN(C)CCCC(C#N)(c2ccc(OC)c(OC)c2)C(C)C)cc1OC (stereo not drawn) | Not Active | Not Active | – | – | Not Active | Not Active | Not Active | – | – | – | 47 | 45 | Not Active | Not Active | Not Active |
| CC(C)Cc1ccc([C@@H](C)C(=O)O)cc1 [(R)-IBUPROPHEN] | Not Active | Not Active | Not Active | Not Active | Not Active | Not Active | Not Active | – | Not Active | Not Active | – | – | Not Active | Not Active | Not Active |
| CN(C)CCOC(c1ccccc1)c1ccccc1 [DIPHENHYDRAMINE] | – | – | – | – | Not Active | – | – | – | – | – | – | – | Not Active | – | – |
| Clc1ccc(COC(Cn2ccnc2)c2ccc(Cl)cc2Cl)cc1 (stereo not drawn) [ECONAZOLE] | – | – | – | – | Not Active | – | – | – | – | – | – | – | Not Active | – | – |
| CCN(CC)CCOc1ccc(/C(=C(/Cl)c2ccccc2)c2ccccc2)cc1 [ENCLOMIPHENE] | – | – | – | – | Not Active | – | – | – | Not Active | Not Active | – | – | Not Active | Not Active | Not Active |
| Fc1ccc(C(c2ccc(F)cc2)N2CCN(C/C=C/c3ccccc3)CC2)cc1 [FLUNARIZINE] | – | – | – | – | Not Active | – | – | – | – | – | – | – | Not Active | Not Active | Not Active |
| CNCCC(Oc1ccc(C(F)(F)F)cc1)c1ccccc1 (stereo not drawn) [FLUOXETINE] | – | – | – | – | Not Active | – | – | – | – | – | – | – | Not Active | Not Active | Not Active |
| Cc1ccc(NC(=O)c2ccc(CN3CCN(C)CC3)cc2)cc1Nc1nccc(-c2cccnc2)n1 [IMATINIB] | – | – | – | – | Not Active | – | – | – | – | – | – | – | Not Active | Not Active | Not Active |
| CC(C)Oc1ccc2c(=O)c(-c3ccccc3)coc2c1 [IPRIFLAVONE] | Not Active | Not Active | Not Active | Not Active | Not Active | Not Active | Not Active | – | Not Active | Not Active | – | – | Not Active | Not Active | Not Active |
| CC(C)NCC(O)c1ccc(O)c(O)c1 (stereo not drawn) [ISOPROTERENOL] | Not Active | Not Active | Not Active | Not Active | Not Active | Not Active | Not Active | 1770 | Not Active | Not Active | – | – | – | Not Active | Not Active |
